Drawing on patent US8183281B2, “CXC-chemokine receptor ligands” (Novartis AG, priority 2007, dated 2012), this text covers IC50 for two compounds.

In this assay the target is T1, Human CXCR2 Receptor (Homo sapiens, UniProt P25025).
T1 construct: purchased Biosignal Packard Inc; host or cells: Chinese hamster ovary cells (CHO-K1), membranes
T1 sequence (P25025 1-360): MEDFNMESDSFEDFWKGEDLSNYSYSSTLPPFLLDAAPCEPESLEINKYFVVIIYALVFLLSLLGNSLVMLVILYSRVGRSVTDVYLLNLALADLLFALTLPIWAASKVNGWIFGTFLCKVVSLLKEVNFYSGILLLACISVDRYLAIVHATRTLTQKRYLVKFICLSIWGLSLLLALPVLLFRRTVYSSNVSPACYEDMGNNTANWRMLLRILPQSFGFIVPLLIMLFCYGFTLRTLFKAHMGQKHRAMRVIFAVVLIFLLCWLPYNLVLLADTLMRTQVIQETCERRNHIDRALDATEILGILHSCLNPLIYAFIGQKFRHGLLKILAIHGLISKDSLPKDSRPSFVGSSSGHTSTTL
Nature of the assay: [35S]-GTPγS binding assay for human CXCR2 receptor using SPA technology. Format: biochemical. The conditions noted are these: CHO-K1 membranes expressing human CXCR2; 100 nM IL-8 stimulated; read-out: IC50 values in the [35S]-GPTγS binding assay. The source says:
[^35S]-GTPγS Binding Assay for Human CXCR2 Receptor Using SPA Technology
[^35S]-GTPγS (with specific activity 1082 Ci/mmol) and wheat germ agglutinin poly vinyl toluene scintillation proximity beads are purchased from Amersham Pharmacia Biotech. The Chinese hamster ovary cell (CHO-K1) membranes expressing human CXCR2 receptors are purchased from Biosignal Packard Inc. All other chemicals are of analytical grade. White non-binding surface 96 well Optiplate™ microplates are obtained from Packard. Recombinant human IL-8 is synthesised, cloned and expressed in Escherichia coli as described previously (Lindley I, et al., Proc. Natl. Acad. Sci., 1988, 85(23):9199). The assay is performed in duplicate in 96 well Optiplate™ microplate in a final volume of 250 μl per well. Compounds are diluted in DMSO (0.5% final concentration) and incubated in 20 mM HEPES buffer pH 7.4 containing 10 mM MgCl2, 100 mM NaCl, 1 mM EDTA plus 100 nM IL-8, 50 μM GDP and […] [^35S]GTPγS per well. SPA beads (1 mg/well final concentration) were pre-mixed with the membranes (10 μg/well final concentration) in assay buffer: 20 mM HEPES buffer pH 7.4 containing 10 mM MgCl2, 100 mM NaCl, 1 mM EDTA. […] The plate is centrifuged and read on Packard TopCoun™ scintillation counter, program [^35S dpm] for 1 min/well. Data are expressed as the % response to 100 nM IL-8 minus basal.

By IC50 is commonly meant the concentration at which inhibition is half-maximal. `O=c1c(Nc2ccc(Cl)c(S(=O)(=O)N3CCOCC3)c2O)c(NC2CCSC2)c1=O` (centres unmarked) [Example 7, 3-[4-Chloro-2-hydroxy-3-(morpholine-4-sulfonyl)-phenylamino]-4-(tetra-hydro-thiophen-3-ylamino)-cyclobut-3-ene-1,2-dione]: the half-maximal inhibitory concentration (IC50) turned out to be 22 nM.

Turning to `CC[C@@H](Nc1c(Nc2ccc(Cl)c(S(=O)(=O)N3CCCC3)c2O)c(=O)c1=O)[C@H]1CC[C@@H](C)O1` [Example 17, 3-[4-Chloro-2-hydroxy-3-(pyrrolidine-1-sulfonyl)-phenylamino]-4-[(R)-1-((2R,5R)-5-methyl-tetrahydrofuran-2-yl)-propylamino]-cyclobut-3-ene-1,2-dione], the IC50 was determined as 58 nM.
